# Measured values published in patent US10047084B2, “Imidazolone derivatives, pharmaceutical compositions and uses thereof” (BEIJING FORELANDPHARMA CO. LTD., priority 2013, dated 2018).
# How the values were obtained:
# mTOR kinase = mTOR kinase (Homo sapiens (Human), UniProt P42345); assay: mTOR kinase activity assay (TR-FRET, GFP-4EBP1 substrate); type: biochemical; conditions: read-out: Enzyme (mTOR) IC50
# [1] = target: PI3K-alpha (PIK3CA/PIK3R1) (Homo sapiens (Human), UniProt P42336); assay: PI3K-alpha enzyme activity assay (ADP Glo); type: biochemical; conditions: read-out: Activity of inhibiting PI3K enzyme IC50
# PI3K-alpha (PIK3CA/PIK3R1), sequence (P42336 whole entry, looked up): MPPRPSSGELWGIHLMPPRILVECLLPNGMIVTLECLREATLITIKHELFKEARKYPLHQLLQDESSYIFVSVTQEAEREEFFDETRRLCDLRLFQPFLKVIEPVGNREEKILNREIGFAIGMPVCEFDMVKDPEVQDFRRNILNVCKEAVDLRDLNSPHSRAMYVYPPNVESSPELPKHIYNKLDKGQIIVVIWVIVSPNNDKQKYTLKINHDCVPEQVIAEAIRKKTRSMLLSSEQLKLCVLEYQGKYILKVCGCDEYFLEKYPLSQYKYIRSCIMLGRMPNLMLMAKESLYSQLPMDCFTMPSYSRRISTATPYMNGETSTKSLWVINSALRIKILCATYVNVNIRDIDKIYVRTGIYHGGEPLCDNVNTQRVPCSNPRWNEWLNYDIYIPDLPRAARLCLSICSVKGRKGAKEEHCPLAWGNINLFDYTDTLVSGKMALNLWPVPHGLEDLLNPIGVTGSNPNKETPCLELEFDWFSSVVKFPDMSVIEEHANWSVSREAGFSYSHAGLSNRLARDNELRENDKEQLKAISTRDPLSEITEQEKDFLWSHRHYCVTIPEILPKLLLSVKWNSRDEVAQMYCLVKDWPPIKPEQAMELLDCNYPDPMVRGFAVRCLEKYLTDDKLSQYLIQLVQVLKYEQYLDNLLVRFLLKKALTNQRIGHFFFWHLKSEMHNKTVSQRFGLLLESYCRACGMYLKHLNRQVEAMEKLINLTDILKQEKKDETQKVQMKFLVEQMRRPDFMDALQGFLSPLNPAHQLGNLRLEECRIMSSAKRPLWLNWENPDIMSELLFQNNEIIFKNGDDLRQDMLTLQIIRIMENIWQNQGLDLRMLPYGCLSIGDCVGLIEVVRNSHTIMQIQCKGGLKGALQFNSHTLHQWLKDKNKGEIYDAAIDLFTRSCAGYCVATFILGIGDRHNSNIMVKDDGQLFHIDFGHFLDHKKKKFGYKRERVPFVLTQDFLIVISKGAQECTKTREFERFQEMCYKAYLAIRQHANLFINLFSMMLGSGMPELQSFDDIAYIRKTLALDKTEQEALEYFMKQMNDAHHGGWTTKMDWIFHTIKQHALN
# PI3K-alpha (PIK3CA/PIK3R1), sequence (P27986 whole entry partner, looked up): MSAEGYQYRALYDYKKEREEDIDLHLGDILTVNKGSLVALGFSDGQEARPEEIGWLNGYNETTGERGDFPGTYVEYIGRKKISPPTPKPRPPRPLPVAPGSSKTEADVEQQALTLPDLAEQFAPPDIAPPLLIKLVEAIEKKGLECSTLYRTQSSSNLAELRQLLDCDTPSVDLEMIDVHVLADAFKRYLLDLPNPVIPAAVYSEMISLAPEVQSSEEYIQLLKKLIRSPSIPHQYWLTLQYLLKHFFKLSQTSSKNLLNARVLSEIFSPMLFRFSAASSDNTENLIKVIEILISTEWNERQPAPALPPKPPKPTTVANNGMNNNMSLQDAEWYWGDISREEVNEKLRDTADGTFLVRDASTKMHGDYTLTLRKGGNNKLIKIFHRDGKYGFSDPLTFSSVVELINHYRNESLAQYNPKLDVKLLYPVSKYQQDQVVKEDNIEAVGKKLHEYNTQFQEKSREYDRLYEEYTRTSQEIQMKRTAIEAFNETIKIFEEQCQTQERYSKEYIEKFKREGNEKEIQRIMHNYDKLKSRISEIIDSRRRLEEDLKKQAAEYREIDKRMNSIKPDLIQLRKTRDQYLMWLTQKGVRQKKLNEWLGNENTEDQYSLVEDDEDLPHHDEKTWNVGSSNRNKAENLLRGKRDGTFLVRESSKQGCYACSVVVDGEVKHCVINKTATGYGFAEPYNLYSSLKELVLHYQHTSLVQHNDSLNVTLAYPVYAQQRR
# Source text: 3. PI3K-alpha Enzyme Activity Assay: PI3K alpha-ADP Glo Assay was employed. In the determination of PI3K enzyme activity, the detection kit supplied by Promega (Promega, Cat #: V9101) was used to detect the inhibition effect of the compounds on the activity of PI3K enzyme. The adenosine diphosphate produced during the whole enzymic reactions was quantified. The resulting values were used to calculate the activity of PI3K (Table 1).
# 3.1 Detection reagents: PIK3CA/PIK3R1 purchased from Invitrogen (Cat #: PV4788): The active kinase was diluted with kinase diluent III; and mixed with bovine serum albumin (BSA) in a ratio of 1:4 (5×dilution). The final BSA concentration was 50 ng/ml; and the compositions of Kinase Detection Solution I were: 25 mM MOPS, pH7.2, 12.5 mM β-glycerophosphate, 25 mM magnesium chloride, 5 mM EGTA, and 2 mM EDTA. Before use, 0.25 mM DTT was added to Kinase Detection Solution I; 250 μM adenosine triphosphate (ATP) Detection solution: 0.55 mg of ATP was dissolved in 4 ml of Kinase Detection Solution I, subdivided in 200 μl/vial and stored at −20° C. Substrate: Phosphatidylinositol (4,5) bis-phosphate; this substrate was diluted with Kinase Detection Solution I to a concentration of 125 μM. Final concentrations were: 10 μM PIP2, 10 μM ATP, 1% DMSO, and 0.0005-10 μM compounds.
# a) Experimental Procedure: • 3.2.1 50 μL of the compounds diluted with dimethyl sulfoxide (DMSO) at a concentration of 100 μM were added to the 384-well dilution plate. The compounds were diluted with dimethyl sulfo de (DMSO) in a ratio of 1:3 (10 dilution concentrations plus 1 zero concentration). • 3.2.2 5 μL of the diluted compounds were transferred to the corresponding 384-well black Proxi plate (containing 47.5 μL of detection solution/well), and shaked for several seconds. • 3.2.3 2 μL of 2.5×PI3K working solution was added to 384-well black Proxi plate. • 3.2.4 2 μL of the diluted compounds were added to the detection plate (3 wells for each concentration). • 3.2.5 The plate was incubated at room temperature for 2 h. • 3.2.6 5 μL of ADP Glo Reagent was added. • 3.2.7 The plate was incubated at room temperature for 40 minutes. • 3.2.8 10 μL of the kinase detection reagent was added. • 3.2.9 The plate was incubated at room temperature for 40 minutes. • 3.2.10 The activity was detected by using Envision Reader.
# The inhibition of the mTOR […] activity by the compounds ranges in 0.5 to several hundreds nanomoles, see Table 1.
# [2] = Solubility test in common aqueous vehicles; type: physicochemical; conditions: 25° C., pH = 3
# mTOR kinase, sequence (P42345 1360-2549): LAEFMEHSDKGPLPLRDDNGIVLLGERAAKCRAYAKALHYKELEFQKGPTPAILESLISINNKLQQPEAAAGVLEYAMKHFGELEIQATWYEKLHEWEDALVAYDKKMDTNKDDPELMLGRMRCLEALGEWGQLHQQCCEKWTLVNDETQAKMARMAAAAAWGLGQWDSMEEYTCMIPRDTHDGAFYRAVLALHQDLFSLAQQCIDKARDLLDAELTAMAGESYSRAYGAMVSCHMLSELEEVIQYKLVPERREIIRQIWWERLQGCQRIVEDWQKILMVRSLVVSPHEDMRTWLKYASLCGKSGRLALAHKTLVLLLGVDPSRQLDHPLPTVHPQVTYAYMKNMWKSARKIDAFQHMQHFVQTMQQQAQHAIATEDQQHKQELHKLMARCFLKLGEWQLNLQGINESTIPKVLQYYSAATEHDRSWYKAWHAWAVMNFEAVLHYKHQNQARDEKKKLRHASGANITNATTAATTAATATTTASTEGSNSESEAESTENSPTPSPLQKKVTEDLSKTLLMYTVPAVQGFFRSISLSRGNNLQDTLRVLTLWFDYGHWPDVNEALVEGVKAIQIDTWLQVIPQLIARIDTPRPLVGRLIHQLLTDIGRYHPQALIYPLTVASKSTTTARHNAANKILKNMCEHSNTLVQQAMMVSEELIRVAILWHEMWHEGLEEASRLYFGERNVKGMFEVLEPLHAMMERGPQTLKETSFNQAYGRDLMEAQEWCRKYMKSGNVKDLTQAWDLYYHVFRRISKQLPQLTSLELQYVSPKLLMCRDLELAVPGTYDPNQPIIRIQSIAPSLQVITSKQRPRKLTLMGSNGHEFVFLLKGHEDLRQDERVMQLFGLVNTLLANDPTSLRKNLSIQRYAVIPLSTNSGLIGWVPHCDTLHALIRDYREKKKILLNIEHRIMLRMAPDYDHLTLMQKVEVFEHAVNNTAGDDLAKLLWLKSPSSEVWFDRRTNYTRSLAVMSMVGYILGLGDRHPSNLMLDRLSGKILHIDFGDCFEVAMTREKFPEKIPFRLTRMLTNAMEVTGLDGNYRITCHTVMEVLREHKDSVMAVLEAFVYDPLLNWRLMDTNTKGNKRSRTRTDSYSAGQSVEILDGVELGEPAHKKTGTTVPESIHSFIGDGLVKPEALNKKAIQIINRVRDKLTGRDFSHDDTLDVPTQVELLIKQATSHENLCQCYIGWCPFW
smiles,measurement,setting,value
"Cn1cc(-c2ccc(-c3ccc4ncc5c(c4c3)n(C3CCCN(S(C)(=O)=O)C3)c(=O)n5C)cn2)cn1 (centres unmarked) [Example 3, 3-methyl-8-(6-(1-methyl-1H-pyrazol-4-yl)pyridin-3-yl)-1-(1-(methanesulfonyl)piperidin-3-yl)-1H-imidazo[4,5-c]quinolin-2(3H)-one]",IC50,mTOR kinase,< 10 nM
same,IC50,[1],< 10 nM
"Cn1cc(-c2ccc(-c3ccc4ncc5c(c4c3)n([C@H]3CC[C@@H](O)CC3)c(=O)n5C)cn2)cn1 [Example 18, 1-((1s,4s)-4-hydroxycyclohexyl)-3-methyl-8-(6-(1-methyl-1H-pyrazol-4-yl)pyridin-3-yl)-1H-imidazo[4,5-c]quinolin-2(3H)-one]",solubility,"[2]; aqueous buffer, water",> 5000 µg/mL
same,IC50,mTOR kinase,< 10 nM
same,IC50,[1],< 10 nM
"Cn1cc(-c2ccc(-c3ccc4ncc5c(c4c3)n([C@H]3CCN(S(C)(=O)=O)C3)c(=O)n5C)cn2)cn1 [Example 28, (S)-3-methyl-8-(6-(1-methyl-1H-pyrazol-4-yl)pyridin-3-yl)-1-(1-(methanesulfonyl)pyrrolidin-3-yl)-1H-imidazo[4,5-c]quinolin-2(3H)-one]",solubility,"[2]; aqueous with cosolvent or surfactant or cyclodextrin, 30% sulfobutyl-β-cyclodextrin",> 3000 µg/mL
same,IC50,mTOR kinase,< 10 nM
same,IC50,[1],< 10 nM
"Cn1cc(-c2ccc(-c3ccc4ncc5c(c4c3)n([C@@H]3CCCN(S(C)(=O)=O)C3)c(=O)n5C)cn2)cn1 [Example 31, (R)-3-methyl-8-(6-(1-methyl-1H-pyrazol-4-yl)pyridin-3-yl)-1-(1-(methanesulfonyl)piperidin-3-yl)-1H-imidazo[4,5-c]quinolin-2(3H)-one]",solubility,"[2]; aqueous buffer, water",> 5000 µg/mL
same,IC50,mTOR kinase,< 10 nM
same,IC50,[1],< 10 nM
